From US20140179681A1, “METHODS AND COMPOSITIONS OF TARGETED DRUG DEVELOPMENT” (priority 2010, published 2014)
Like-named read-outs stand apart in the source and are kept apart here.

Assays:
[1] = tested on: epithelial carcinoma A431 cell line; test: MTT Cell Proliferation Assay, A431 cells; format: cell-based; details: for IC50: Homo sapiens; for MTT Assay IC50(A431/MDBK): ratio in parentheses: ratio MDBK IC50 / A431 IC50 (selectivity); for MTT Follow-up: ratio in parentheses: ratio MDBK/A431
Outline: (§1)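 Viability was measured by mitochondrial MTT reduction after cells were exposed to compound for 3 days in reduced-serum medium. Inhibition was calculated per plate against 0.5% DMSO controls.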

EGFR = target: T1, EGFR (Homo sapiens, UniProt P00533); test: EGFR in-cell Western (ICW) screening protocol (EGFR inhibition assay); format: cell-based; set-up: ICW 1 / ICW 2 / ICW Avg: unit not given here; details: for ICW assay: Table 10, % Inhibition of EGF dependent EGFR phosphorylation in A431 cells, compound 125 μM in assay; for ICW Avg / ICW 1 / ICW 2: ICW assay; for ICW Avg: average of runs 1 and 2; for ICW 1: run 1; for ICW 2: run 2
T1 construct: host or cells: A431
Outline: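 Serum-starved A431 cells (2 h) were pretreated with compound for 4 h at 37° C, then stimulated with EGF (10 ng/ml final, or 6.6 or 12.5 ng/ml in some runs) for 10 min. After formaldehyde fixation, phospho-EGFR (Tyr1173, or Tyr1045 in some runs) and total EGFR were detected by in-cell Western immunostaining.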

MDBK line = test: MTT Cell Proliferation Assay, MDBK cells; format: cell-based, bovine; details: MDBK; for IC50: Bos taurus
Outline: as §1

[2] = A-431, 72 h, Table 10, first of x/y(ratio): A431, three day treatment, unit not printed (doses in μM), read-out: MTT assay (first value)
[3] = 72 h, Table 10, second of x/y(ratio): MDBK, three day treatment, unit not printed (doses in μM), read-out: MTT assay (second value)
[4] = A-431, A431 cells, first value of cell, read-out: MTT Assay IC50(A431/MDBK): A431
[5] = MDBK cells, second value of cell, read-out: MTT Assay IC50(A431/MDBK): MDBK
[6] = A-431, follow-up MTT, A431 cells, first value, read-out: MTT Follow-up: A431
[7] = follow-up MTT, MDBK cells, second value, read-out: MTT Follow-up: MDBK

T1 sequence (P00533 25-1210): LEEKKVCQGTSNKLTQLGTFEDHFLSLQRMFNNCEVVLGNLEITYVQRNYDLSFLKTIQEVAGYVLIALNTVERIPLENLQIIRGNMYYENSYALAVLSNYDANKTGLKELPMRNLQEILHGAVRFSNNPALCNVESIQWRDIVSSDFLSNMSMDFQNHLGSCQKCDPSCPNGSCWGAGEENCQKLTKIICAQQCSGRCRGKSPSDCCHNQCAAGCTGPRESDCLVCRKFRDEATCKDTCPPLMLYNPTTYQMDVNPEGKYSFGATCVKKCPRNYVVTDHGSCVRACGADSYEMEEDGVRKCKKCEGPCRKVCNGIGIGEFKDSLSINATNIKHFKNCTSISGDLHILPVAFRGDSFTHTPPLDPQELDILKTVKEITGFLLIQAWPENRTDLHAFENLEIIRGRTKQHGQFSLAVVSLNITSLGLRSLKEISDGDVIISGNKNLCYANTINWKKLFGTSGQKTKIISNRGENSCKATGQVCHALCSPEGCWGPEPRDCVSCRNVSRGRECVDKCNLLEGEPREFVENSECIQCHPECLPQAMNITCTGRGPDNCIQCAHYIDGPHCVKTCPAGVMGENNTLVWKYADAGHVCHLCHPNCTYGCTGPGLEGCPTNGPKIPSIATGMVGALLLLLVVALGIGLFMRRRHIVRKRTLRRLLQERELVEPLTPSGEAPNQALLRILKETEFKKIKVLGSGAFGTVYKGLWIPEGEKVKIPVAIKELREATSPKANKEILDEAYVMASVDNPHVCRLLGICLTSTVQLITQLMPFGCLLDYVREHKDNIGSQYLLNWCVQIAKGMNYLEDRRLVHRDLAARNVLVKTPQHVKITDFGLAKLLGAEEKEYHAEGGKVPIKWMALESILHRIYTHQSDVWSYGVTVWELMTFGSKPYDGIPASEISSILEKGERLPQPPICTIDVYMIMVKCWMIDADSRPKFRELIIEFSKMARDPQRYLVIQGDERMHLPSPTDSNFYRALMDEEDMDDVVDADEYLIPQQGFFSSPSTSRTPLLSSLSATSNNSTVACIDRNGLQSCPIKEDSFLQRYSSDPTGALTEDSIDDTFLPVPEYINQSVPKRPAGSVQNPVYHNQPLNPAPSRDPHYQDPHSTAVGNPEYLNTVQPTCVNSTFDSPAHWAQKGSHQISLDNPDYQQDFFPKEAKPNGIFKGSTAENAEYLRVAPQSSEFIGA

Structure (SMILES)	IC50 [1, 2] [µM]	ICW assay (EGFR)	IC50 (MDBK line; [3]) [µM]	IC50 [1, 4] [µM]	MTT Assay IC50(A431/MDBK): ratio in parentheses [1]	ICW Avg (EGFR)	ICW 1 (EGFR)	ICW 2 (EGFR)	IC50 (MDBK line; [5]) [µM]	MTT Assay, MDBK percent at a single concentration (MDBK line; at 100 μM) [%]	IC50 [1, 6] [µM]	MTT Follow-up: ratio in parentheses [1]	IC50 (MDBK line; [7]) [µM]	IC50 ([1]; A-431, A431 cells, normalized, read-out: MTT Assay IC50 (normalized): A431) [µM]	IC50 (MDBK line; MDBK cells, normalized, read-out: MTT Assay IC50 (normalized): MDBK) [µM]
O=S(=O)(Nc1ccccc1)c1ccc(NC(=S)Nc2ccc(F)c(Cl)c2)cc1 [AD4-12851]	6.51	118.637	5.39	–	–	–	–	–	–	–	–	–	–	–	–
CC1CCc2cc(F)ccc2N1S(=O)(=O)c1ccc(NC(=S)Nc2cccc(Cl)c2Cl)cc1 (stereo not shown) [AD4-12853]	8.76	36.92	7.51	–	–	–	–	–	–	–	–	–	–	–	–
CCc1ccc(NC(=S)Nc2ccc(S(=O)(=O)Nc3ccccc3)cc2)cc1 [AD4-12854]	6.64	38.7055	8.19	–	–	–	–	–	–	–	–	–	–	–	–
O=S(=O)(Nc1ccccc1)c1ccc(NC(=S)Nc2cc(Cl)ccc2Cl)cc1 [AD4-12855]	6.83	25.0542	6.25	–	–	–	–	–	–	–	–	–	–	–	–
Cc1ccc2nc(Nc3nc(=O)c(Cc4ccccc4)c(C)[nH]3)nc(C)c2c1 [compound 11294]	–	–	–	6.43	3.08	33.47	29.81	37.13	19.8	–	–	–	–	–	–
Cc1ccc2[nH]c(Nc3nc(C)cc(-c4ccccc4)n3)nc(=O)c2c1 [compound 11315]	–	–	–	–	very selective	49.58	48.33	50.82	–	20	–	–	–	–	–
Cc1cc(C)nc(Nc2nc(-c3ccccc3)c3cc(Cl)ccc3n2)n1 [compound 11316]	–	–	–	44.4	0.45	50.76	47.95	53.57	19.9	–	–	–	–	–	–
CCOc1ccc2nc(Nc3nc(=O)c(Cc4ccc(C)cc4)c(C)[nH]3)nc(C)c2c1 [compound 11442]	–	–	–	15.6	–	37.95	50.14	25.76	118	–	–	–	–	–	–
COc1ccc2nc(Nc3nc(CSc4nnnn4-c4ccccc4)cc(=O)[nH]3)nc(C)c2c1 [compound 11448]	–	–	–	3.45	3.27	43.72	50.06	37.38	11.8	–	–	–	–	–	–
FC(F)(F)c1cc(C(F)(F)F)nc(Nc2nc(-c3ccccc3)c3cc(Cl)ccc3n2)n1 [compound 11449]	–	–	–	6.41	0.84	37.11	48.00	26.22	5.4	–	–	–	–	–	–
Cc1ccc2nc(Nc3nc(CSc4nnc(C)s4)cc(=O)[nH]3)nc(C)c2c1 [compound 11450]	–	–	–	6.98	–	50.68	53.35	48.02	6.83	–	–	–	–	–	–
Cc1ccnc(Nc2nc(-c3ccccc3)c3cc(Cl)ccc3n2)n1 [compound 11455]	–	–	–	10.8	2.16	37.35	48.80	25.90	23.4	–	–	–	–	–	–
COc1ccc2nc(Nc3nc(C)c(CCC(C)C)c(=O)[nH]3)nc(C)c2c1 [compound 11456]	–	–	–	5.84	0.94	35.54	33.74	37.33	5.48	–	–	–	–	–	–
Cc1cc(C(F)(F)F)nc(Nc2nc(C)c3ccccc3n2)n1 [compound 11457]	–	–	–	27.4	1.79	28.58	38.67	18.48	49	–	–	–	–	–	–
CCc1ccc2nc(Nc3nc(C)c(CCC(C)C)c(=O)[nH]3)nc(C)c2c1 [compound 11462]	–	–	–	14.6	3.19	77.32	77.14	77.49	46.6	–	–	–	–	–	–
Cc1ccc2c(C)nc(Nc3nc(CSc4nnc(C)s4)cc(=O)[nH]3)nc2c1 [compound 11469]	–	–	–	10.1	1.13	25.25	26.79	23.71	11.5	–	–	–	–	–	–
Cc1ccc2c(C)nc(Nc3nc(C(C)C)cc(=O)[nH]3)nc2c1 [compound 11472]	–	–	–	24.7	–	59.32	51.74	66.90	19.4	–	–	–	–	–	–
COc1cccc(-c2cc(=O)[nH]c(Nc3nc(C)c4cccc(C)c4n3)n2)c1 [compound 11474]	–	–	–	3.57	7.98	40.45	32.19	48.71	28.5	–	–	–	–	–	–
Cc1cc(C)c2nc(Nc3nc(CSc4nnc(C)s4)cc(=O)[nH]3)nc(C)c2c1 [compound 11476]	–	–	–	17.9	0.74	33.91	36.71	31.11	13.3	–	–	–	–	–	–
CCCCc1c(C)nc(Nc2nc(C)c3cc(C)ccc3n2)[nH]c1=O [compound 11498]	–	–	–	5.39	–	49.32	42.15	56.48	8.77	–	–	–	–	–	–
CCc1ccc2nc(Nc3nc(-c4cccc(OC)c4)cc(=O)[nH]3)nc(C)c2c1 [compound 11503]	–	–	–	6.71	2.83	32.21	25.88	38.53	19	–	–	–	–	–	–
Cc1ccc2c(C)nc(Nc3nc(-c4ccccc4C)cc(=O)[nH]3)nc2c1 [compound 11511]	–	–	–	–	–	82.50	77.05	87.95	–	–	1.26	0.45	0.57	–	–
Cc1nc(Nc2nc(CSc3nc4ccccc4[nH]3)cc(=O)[nH]2)nc2ccccc12 [compound 11582]	–	–	–	2.43	–	49.89	59.77	40.01	2.44	–	49.3	1.13	55.9	–	–
Cc1ccc2nc(Nc3nc(CSc4nc5ccccc5s4)cc(=O)[nH]3)nc(C)c2c1 [compound 11592]	–	–	–	21.8	0.84	29.16	24.41	33.91	18.3	–	–	–	–	–	–
Cc1ccc2nc(Nc3nc(=O)cc(-c4ccccc4)[nH]3)nc(C)c2c1 [compound 11601]	–	–	–	1.29	–	56.08	58.11	54.06	2.62	–	3.67	13.23	48.6	0.738	2.61
